Assay results: patent publication US12291581B2, “Serpin peptides and methods of using the same” (SERPIN PHARMA, LLC, priority 2012, dated 2025)
Entries after “also recorded” stand apart in the source; their conditions may differ.

What was measured:
LPS challenged mice = experiment: Mouse LPS challenge (sepsis/inflammation) model, serum TNF-alpha by ELISA; assay type: in vivo; conditions: for anti-inflammatory effect when administered to a mouse model of sepsis (FIG. 10): Table B peptides; for TNF-alpha levels in LPS challenged mice, alanine scanned SP16 peptides (FIG. 10B): compared with Dexamethasone positive control
Method: FIGS. 10A and B. FIG. 10A presents exemplary peptides that were used to reduce TNF-alpha levels in mice subjected to an LPS challenge. […] The mice were treated with alanine scanned SP16 peptide. […] Based on this alanine screen, and without wishing to be bound by a theory, it appears that the C- and N-terminal amino acids contribute to the anti-inflammatory effect of the SP16 peptide. […] Groups of 3 animals were injected with 0.2 mg/kg peptide and subjected to LPS challenge. Serum TNF-alpha levels were determined by ELISA. Several peptides provided the same level of protection as 1 mg/kg Dexamethasone.
The ability of peptide drugs was tested to for their potential for the reduction of inflammatory cytokines following treatment with purified bacterial lipopolysaccharide (LPS)—a major component of bacterial cell wall of Gram-negative bacteria. A model of inflammation was used wherein mice were injected with LPS, which induced a transient immune response and a surge of serum inflammatory cytokines. The immune response peaks after 90 minutes and subsides after 24 hours. The levels of key serum inflammatory markers were compared between mice treated and untreated with LPS 90 minutes after injection.
We designed 18 different peptides based on the hAAT sequence (Accession #AAB59371), and had these synthesized using conventional FMOC chemistry. To assess in vivo anti-inflammatory and therapeutic potential, the peptides were tested in a mouse lipopolysaccharide (LPS) challenge model with serum TNFα levels as readout. Using dexamethasone as reference, groups of 3 animals were IP injected with 0.2 mg/kg peptide 2 hours prior to an LPS challenge, and serum TNFα levels determined 30 min after the LPS challenge, by ELISA. The best performing peptide reduced serum TNFα levels equivalent to those achieved with 1 mg/kg dexamethasone. Next, shortened versions of this peptide were synthesized, tested in the mouse LPS challenge model, and a 17 amino acid peptide, SP16, emerged as a lead development candidate for further characterization. Next, SP16 was tested in a lethal endotoxemia model, which models endotoxemia following acute radiation exposure, where Gram negative bacteria leaking from the gastro-intestinal system can cause lethal endotoxemia.
Mice were injected with 0.5, 0.1, 0.02 and 0.004 mg of each peptide. Mice were also treated with dexamethasone as a positive control and vehicle as a negative control. Two hours later each mouse was injected with LPS. Samples were taken 90 minutes after LPS injection.
To evaluate the effect of different amino acids in the SP16 peptide for the immunomodulating effect, we created an alanine screen. […] The peptides wherein the substitution occurred within amino acids 4-14 of SP16, appeared to maintain and rather improve their capacity to reduce TNF-alpha levels compared to the control Dexamethasone. The LPS mouse model is an established model for sepsis in humans and thus we conclude that peptides wherein the amino acids 1-3 and 15-17 are present, can be effectively used in humans to treat or prevent sepsis in conditions, such as burns or acute radiation, which expose humans to a high risk of developing endotoxemia.

NOD mice = experiment: NOD mouse spontaneous autoimmune (type I) diabetes model; assay type: in vivo; conditions: groups of 12 NOD mice, vs scrambled control peptide
Method: Groups of 12 animals were injected with SP16, hAAT or scrambled control peptide. Non-fasted blood glucose levels were measured twice a week and animals with two consecutive readings greater than 300 mg/dl were considered diabetic.
NOD (non-obese diabetic) mice spontaneously develop overt, insulin-dependent type I diabetes. The NOD model is recommended by the FDA for preclinical testing of therapeutic agents for type I diabetes. Disease onset typically occurs at 12-14 weeks of age, with peri-insulitis detectable from about 4 weeks of age and developing into severe insulitis at 10 weeks of age. The autoimmune destruction of β-cells is thought to arise from dysregulation of multiple tolerance pathways, leading to islet infiltration with monocytes, predominantly CD4^+ and CD8^+ T cells, and insulitis, with subsequent hypoinsulinemia and hyperglycemia.

[1] = Pharmacokinetic profile after intravenous injection, plasma by LC/MS/MS; assay type: in vivo, rats; conditions: IV 5 mg/kg
Method: In performing the assay, three normal rats were injected intravenously with 5 mg/kg SP16 and the plasma concentration of SP16 established at 8 time points following the injection. […] The assay was executed by Apredica, Boston, Mass.

hERG = hERG (Homo sapiens, UniProt Q12809); assay type: cell-based
From the text: The SP16 safety profile also included hERG data. […] The study was executed by Apredica, Boston, MA.

[2] = system: 111 in vitro assay targets (human receptors); experiment: Human receptor panning, GenSEP Explorer panel
From the text: In addition, we also performed a profile using human receptor panning. The GenSEP Explorer panel contains 111 in vitro assay targets carefully selected to assess drug/chemical biological activities. Assay categories include GPCRs, Voltage-Gated Ion Channels, Ligand-Gated Ion Channels, Neurotransmitter transporters, Nuclear Receptors and Steroids as well as a diverse set of biochemical targets including phosphodiesterases, kinases and other relevant enzymes.

TLR-2 = target: T1, TLR-2 (Mus musculus, UniProt Q9QUN7); experiment: TLR-2 indicator cell line assay (HEK-Blue mTLR2), secreted alkaline phosphatase; assay type: cell-based; conditions: 20 μg/ml peptide, 24 hours
T1 construct: host or cells: HEK-Blue mTLR2 (HEK293-derived reporter line, SEAP read-out)
Method: Graph summarizing representative data from assays with an engineered TLR-2 indicator cell line (HEK-Blue™ mTLR2, Invivogen). Cells were incubated with the indicated concentrations of peptide for 24 hours. Upon TLR2 activation, the cells secrete alkaline phosphatase which can be assayed. The assay was done in triplicate and averages with standard deviations are plotted.
Graph summarizing data from an experiment where an engineered TLR-2 indicator cell line (HEK-Blue™ mTLR2, Invivogen) was used to test the impact of substituting amino acid residues of the SP16 peptide with alanine (“alanine scan”). Cells were incubated with 20 μg/ml of the indicated peptides for 24 hours. Upon TLR2 activation, the cells secrete alkaline phosphatase which can be assayed. The assay was done in triplicate and averages are plotted. Peptide sequences are shown in the following figure. *p<0.05, compared with scrambled control (SP34).
We also performed a peptide optimization assay using an alanine scan with the TLR-2 assay. Data was obtained using an experiment with an engineered TLR-2 indicator cell line (HEK-BLUE™ mTLR2, Invivogen). Cells were incubated with the 20 μg/ml of the indicated peptides for 24 hours. Upon TLR2 activation, the cells secrete alkaline phosphatase, which can be assayed. The assay was done in triplicate and averages are plotted. […]

Sequence of hERG (Q12809 whole entry): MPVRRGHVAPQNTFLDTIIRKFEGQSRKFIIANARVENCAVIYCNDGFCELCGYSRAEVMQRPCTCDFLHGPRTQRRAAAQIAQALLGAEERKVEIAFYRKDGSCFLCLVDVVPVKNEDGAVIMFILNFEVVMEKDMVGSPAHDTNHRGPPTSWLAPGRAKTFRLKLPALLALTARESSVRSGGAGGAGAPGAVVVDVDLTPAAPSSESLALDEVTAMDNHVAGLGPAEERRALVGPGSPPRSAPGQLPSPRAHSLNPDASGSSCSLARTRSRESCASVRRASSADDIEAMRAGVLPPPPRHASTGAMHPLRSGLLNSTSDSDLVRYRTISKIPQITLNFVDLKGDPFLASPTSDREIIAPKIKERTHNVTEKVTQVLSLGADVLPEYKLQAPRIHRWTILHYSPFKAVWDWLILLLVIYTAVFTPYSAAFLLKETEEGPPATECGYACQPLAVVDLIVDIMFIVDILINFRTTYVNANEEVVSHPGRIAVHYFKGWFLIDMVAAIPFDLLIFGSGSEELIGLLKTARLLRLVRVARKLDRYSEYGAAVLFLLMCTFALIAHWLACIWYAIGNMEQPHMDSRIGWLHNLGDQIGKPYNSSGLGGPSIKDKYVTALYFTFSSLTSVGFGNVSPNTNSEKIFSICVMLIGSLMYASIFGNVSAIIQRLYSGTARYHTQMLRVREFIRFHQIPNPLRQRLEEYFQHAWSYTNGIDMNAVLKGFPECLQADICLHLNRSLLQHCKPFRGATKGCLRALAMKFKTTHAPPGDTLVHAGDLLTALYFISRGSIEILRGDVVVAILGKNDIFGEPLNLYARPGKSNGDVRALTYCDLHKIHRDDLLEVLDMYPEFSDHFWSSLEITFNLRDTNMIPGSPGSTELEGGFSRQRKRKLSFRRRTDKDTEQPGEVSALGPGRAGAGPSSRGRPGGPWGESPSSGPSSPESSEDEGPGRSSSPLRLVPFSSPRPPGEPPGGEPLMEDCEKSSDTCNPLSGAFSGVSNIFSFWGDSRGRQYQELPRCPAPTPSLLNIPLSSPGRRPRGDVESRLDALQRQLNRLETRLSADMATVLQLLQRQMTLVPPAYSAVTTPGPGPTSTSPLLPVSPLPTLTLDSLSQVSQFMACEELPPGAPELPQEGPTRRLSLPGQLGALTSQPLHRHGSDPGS
T1 sequence (Q9QUN7 25-784): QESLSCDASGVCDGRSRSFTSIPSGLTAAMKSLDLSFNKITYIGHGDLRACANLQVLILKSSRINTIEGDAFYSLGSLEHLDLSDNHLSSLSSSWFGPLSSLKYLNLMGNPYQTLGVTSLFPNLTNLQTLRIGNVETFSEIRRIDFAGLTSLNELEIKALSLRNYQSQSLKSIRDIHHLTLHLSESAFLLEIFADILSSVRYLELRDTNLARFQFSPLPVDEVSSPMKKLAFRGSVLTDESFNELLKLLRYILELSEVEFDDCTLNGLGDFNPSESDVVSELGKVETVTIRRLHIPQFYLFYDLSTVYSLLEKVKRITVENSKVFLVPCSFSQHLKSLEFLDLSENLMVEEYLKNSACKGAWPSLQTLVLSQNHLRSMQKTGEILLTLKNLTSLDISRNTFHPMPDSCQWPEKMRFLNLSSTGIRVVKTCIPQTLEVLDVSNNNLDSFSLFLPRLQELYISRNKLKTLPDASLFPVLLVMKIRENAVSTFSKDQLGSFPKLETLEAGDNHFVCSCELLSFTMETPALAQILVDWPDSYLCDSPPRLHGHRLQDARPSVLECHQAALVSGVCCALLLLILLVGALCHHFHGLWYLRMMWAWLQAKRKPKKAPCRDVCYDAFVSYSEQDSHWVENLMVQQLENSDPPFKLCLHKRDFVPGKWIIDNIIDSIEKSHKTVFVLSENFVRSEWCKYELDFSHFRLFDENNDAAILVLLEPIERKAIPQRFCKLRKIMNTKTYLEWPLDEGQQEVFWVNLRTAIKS

In the case of “V K F A A A F V F L M I E Q N T K (VKFAAAFVFLMIEQNTK; listed as Homo sapiens) [SP40, alanine scanned SP16 peptide]”, the “anti-inflammatory effect when administered to a mouse model of sepsis (FIG. 10)” value (from here on “anti-inflammatory effect”) (LPS challenged mice) is reported as “particularly good anti-inflammatory effect” and the “TNF-alpha levels in LPS challenged mice, alanine scanned SP16 peptides (FIG. 10B)” value (shortened to “TNF-alpha levels in LPS challenged mice”) (LPS challenged mice) is reported as “reduce TNF-alpha levels more than Dexamethasone”.
In the case of “V K F N K P A A A L M I E Q N T K (VKFNKPAAALMIEQNTK; listed as Homo sapiens) [SP43, alanine scanned SP16 peptide]”, the “anti-inflammatory effect” value (LPS challenged mice) is reported as “particularly good anti-inflammatory effect” and the “TNF-alpha levels in LPS challenged mice” value (LPS challenged mice) is reported as “reduce TNF-alpha levels more than Dexamethasone”.
In the case of “hAAT: human alpha-1-antitrypsin, parent protein of SP16”, the “incidence / development of diabetes (two consecutive non-fasted glucose readings greater than 300 mg/dl)” value (NOD mice) is reported as “delayed and reduced the incidence of diabetes”.
For “V K F N K P F V F A A A E Q N T K (VKFNKPFVFAAAEQNTK; listed as Homo sapiens) [SP46, alanine scanned SP16 peptide]”, the “anti-inflammatory effect” value (LPS challenged mice) was “particularly good anti-inflammatory effect” and the “TNF-alpha levels in LPS challenged mice” value (LPS challenged mice) was “reduce TNF-alpha levels more than Dexamethasone”.
In the case of “V K F N K P F V F L M I A A A T K (VKFNKPFVFLMIAAATK; listed as Homo sapiens) [SP49, alanine scanned SP16 peptide]”, the “anti-inflammatory effect” value (LPS challenged mice) is reported as “particularly good anti-inflammatory effect” and the “TNF-alpha levels in LPS challenged mice” value (LPS challenged mice) is reported as “reduce TNF-alpha levels more than Dexamethasone”.
For `CC[C@H](C)[C@H](NC(=O)[C@H](CCSC)NC(=O)[C@H](CC(C)C)NC(=O)[C@H](Cc1ccccc1)NC(=O)[C@@H](NC(=O)[C@H](Cc1ccccc1)NC(=O)[C@@H]1CCCN1C(=O)[C@H](CCCCN)NC(=O)[C@H](CC(N)=O)NC(=O)[C@H](Cc1ccccc1)NC(=O)[C@H](CCCCN)NC(=O)[C@@H](N)C(C)C)C(C)C)C(=O)N[C@@H](CCC(=O)O)C(=O)N[C@@H](CCC(N)=O)C(=O)N[C@@H](CC(N)=O)C(=O)N[C@H](C(=O)N[C@@H](CCCCN)C(=O)O)[C@@H](C)O` [SP16], the “Last Time point” value ([1]; normal rats) was 8.0, the t1/2 ([1]; normal rats) was 1.9 h and the Cmax ([1]; three normal rats, plasma) was 2500 ng/mL. For the same compound, the “T1/2 (half-life)” value ([1]; three normal rats, plasma) was 1.9 h, the “comment on hERG inhibition” value (hERG; hERG FastPatch, 0.008-25 μM) was “No concentration-dependent” and the IC50 (hERG; hERG FastPatch, test conc 0.008-25 μM (SP16), 0.01-10 μM (Quinidine)) was > 25 µM. For the same compound, the “hERG inhibition” value (hERG; up to 25 μM) was “does not impact hERG activity; also recorded: does not inhibit hERG”, the “effect on the whole GenSEP Explorer panel” value ([2]; 111 human receptors) was “not able to identify any hits; also recorded: no effect on 111 human receptors” and the Percent inhibition ([2]; Brain/gut peptides, 15 receptors tested) was “Insignificant”. The Percent inhibition ([2]; Cell-Based, Functional, 1 receptor tested) was “Insignificant”, the Percent inhibition ([2]; Enzymes, 20 receptors tested) was “Insignificant” and the Percent inhibition ([2]; Enzymes, Kinases, 11 receptors tested) was “Insignificant”. The Percent inhibition ([2]; Growth factors & hormones, 2 receptors tested) was “Insignificant”, the Percent inhibition ([2]; Ion Channels, 8 receptors tested) was “Insignificant” and the Percent inhibition ([2]; Neurotransmitter Related, 47 receptors tested) was “Insignificant”. For the same compound, the Percent inhibition ([2]; Second Messengers, 3 receptors tested) was “Insignificant” and the Percent inhibition ([2]; Steroids, 4 receptors tested) was “Insignificant”.
In the case of “A A A N K P F V F L M I E Q N T K (AAANKPFVFLMIEQNTK; listed as Homo sapiens) [SP37, SP16 with residues 1-3 substituted with alanines]”, the “impact on TLR-2 signaling, alanine scan, FIG. 12/13” value (TLR-2) is reported as “no impact on TLR2”.
